For this assay, the system named is excised human nerve tissue. Put plainly: Phage display selection on excised human nerve tissue (Nerve2, Nerve3), NextGen sequence counts. It is filed as binding. The following applies: unique sequence count (relative enrichment); peptides overlapping between Nerve2 and Plated Nerve2. As to the method: Several m13 phage libraries were constructed expressing randomized variants of a parent peptide (QVPWEEPYYVVKKS-SGGL; SEQ ID NO: 576). In particular, the first 14 amino acids of the parent peptide were randomized using degenerate oligonucleotide synthesis to obtain a diverse set of peptides with a mutation rate of about 50% per residue.
To accomplish this, synthesis was carried out by the XXK codon design approach, where X is any base and K is G or T. To bias synthesis towards the parent sequence, synthesis was carried out at each X position with a mixture of about 70%-85% of the parent nucleotide and 15-30% of the remaining 3 nucleotides. The resulting molecules were inserted into fADL-1e (Antibody Design Laboratories), which is a type 3 phage display vector having a cloning site on the N-terminal side of the full-length gene III protein. The fusion proteins are directed to the periplasm by the PelB leader peptide, which is inserted in the vector […].
Collectively, the phage display libraries used in the screens comprised about 600 million peptides, with sequencing analysis confirming a mutation rate of about 50% per residue.
Phage libraries were independently processed, as follows, with five biological samples: two independent samples of excised human nerve tissue, one sample of a human nerve extract, and two independent samples of human muscle tissue, as follows:
Excised Human Nerve Tissue: For each of the two independent samples, phage were processed through multiple cycles of selection, with representative phage being isolated and sequenced after each selection cycle. Specifically, for selection using human nerve tissue, a sample of […] tissue (2 mm by 2 mm) was washed prior to mixing and incubation with a phage library. After incubation, the mixture (containing mostly intact nerves with phage particles that had variable affinity for nerves) was centrifuged and the nerve pellet washed multiple times with PBS to remove phage with little or no affinity for nerve tissue. The pellet was homogenized and plated for titering and reamplification. Phage that were bound at each round were sequenced. NextGen sequencing of pools after 2, 3 and 4 rounds of selection were used to isolate candidate sequences that were further analyzed using bioinformatics.
NextGen sequencing of pools after 2, 3 and 4 rounds of selection were used to isolate candidate sequences from each of the five samples. These five data sets were then analyzed as described in the next section.
Peptide and vector sequences were translated starting at the first start codon in the nucleotide sequence. […] Trimmed peptides with identical sequences were combined and quantified according to their frequency (count).
Following processing, an R script was written to merge the unique peptide sequences (with counts 6 or greater) from the 5 different data sets to analyze the overlap between nerve and muscle binding activity.
For the single Nerve2, Nerve3, and Plated Nerve2 (pn2) subsets, the number of counts for each group was set at a threshold giving rise to at least 100 peptides. […] As highlighted in yellow in FIG. 1B, the representative group also included 6 unique peptides overlapping between nerve2 and nerve3, 200 unique peptides overlapping between nerve2 and plated nerve2 (at least 60 counts), 4 unique peptides overlapping between nerve3 and plated nerve2. Finally, as highlighted in green in FIG. 1B, the representative group also included […] common to the nerve2, nerve3, and plated nerve2 sets.
For 91 (HDASIALYDPVLMS) [compound 91], the Count is given as 133. The same measure for 92 (QLPGDVTYNLGHKS) [compound 92]: 133. The substance 93 (QPTWEQPYHVDRNS) [compound 93] gave a Count of 131. For 94 (HIPFPGLYSNLDQS) [compound 94], the Count came out at 127. The same measure for 95 (DHPWDVRHYAHKKS) [compound 95]: 126.

Substance 96 (DVPWKESFNIVENS) [compound 96] gave a Count of 126. The same measure for 97 (QFARTAPYYVQTEY) [compound 97]: 125.

The substance 98 (QNPWQKPYTVMKTS) [compound 98] returned a Count of 123.

Substance 99 (HLSFEEPLYGVKKS) [compound 99] showed a Count of 122. For the substance 100 (QFPSGHRVYTGKMT) [compound 100], the Count came to 122. Consider 101 (YNLYEQPYSVLKRS) [compound 101], for which the Count stood at 122. Take 102 (HLPSQVTHYVITSF) [compound 102]: the Count is listed as 115.

Turning to 103 (QVPSHEPFYLGKKY) [compound 103], the Count was found to be 114.

With 104 (RVTQGSPVYGENNA) [compound 104], the Count is 114. The same measure for 105 (QIPMEETYSLRKMS) [compound 105]: 113; for 106 (QIPWEAPSYGATIS) [compound 106]: 113. With 107 (HVGWEQPYYVLRKS) [compound 107] the figure was 112; with 108 (DFATEERRYAVPKY) [compound 108], 111.

Take 109 (DVPLVKPHYGAVDS) [compound 109]: the Count was found to be 111. 110 (QFPSEASHYVVRNS) [compound 110] displayed a Count of 111. With 111 (HSRLHETSYVFNKP) [compound 111] the figure was 110. The substance 112 (HVQRQETDYAAKRI) [compound 112] registered a Count of 110. With 113 (NVLSEEPSSRDANV) [compound 113] the figure was 110; with 114 (HLPFEAPYYAVKRS) [compound 114], 109; with 115 (QLPGEEPTYVGSNS) [compound 115], 109. The same measure for 116 (EVPVGDLSYVGKKY) [compound 116]: 108; for 117 (QFPLVQPNYLVEMP) [compound 117]: 108. 118 (HVPGQDSYNVVNKF) [compound 118]: the Count is 107. With 119 (HVTYTEASVYKRTF) [compound 119] the figure was 107; with 120 (QLEWEEPHYAARKS) [compound 120], 107.

As to 121 (HYQSVKSYSVQKKI) [compound 121], the Count is given as 105. The same measure for 122 (QLTSAEASYVGKQS) [compound 122]: 105; for 123 (HRPWEEPYYVAKQS) [compound 123]: 104; for 124 (LFASENPYNVKSKS) [compound 124]: 103. With 125 (SVPGEDPSQFGKTP) [compound 125] the figure was 103. The same measure for 126 (HVPSEEPYKLDEQS) [compound 126]: 102; for 127 (QFRIEDSYDVANQS) [compound 127]: 102. 128 (QIYWHESNYLVTKS) [compound 128] gave a Count of 102. With 129 (HIPGDETSYVMKKY) [compound 129] the figure was 100; with 130 (QSLSEEPQYVVTPS) [compound 130], 98; with 131 (HILLEEPSNVLNKR) [compound 131], 96. The same measure for 132 (TLPVYVPYYVVNNT) [compound 132]: 96. As to 133 (HMRSEQPYYGGKVS) [compound 133], the Count stood at 95. The same measure for 134 (EVPRTERNFVVKNT) [compound 134]: 94.

The record behind these values is patent US20240207422A1, “NERVE TARGETING PEPTIDE CONJUGATES AND METHODS OF USE” (Alume Biosciences, Inc., priority 2022, published 2024).
